Here are results for 25 compounds from patent publication US11066414B2, “Cot modulators and methods of use thereof” (Gilead Sciences, Inc., priority 2015, dated 2021).

Broadly, the EC50 is the midpoint of the concentration-response curve.

One test has as its system TNFα. In words: Cot Monocyte TNFα Cell Based Assay. Particulars: Homo sapiens, Monocyte, read-out: EC50 TNF, LPS-stimulated human monocytes, TNFα.
For `Cc1ncccc1[C@H](Nc1cc(Cl)c2ncc(C#N)c(Nc3ccc(Cl)c(Cl)c3F)c2c1)c1cn(C(C)C)nn1` [Example 232, (S)-8-chloro-4-((3,4-dichloro-2-fluorophenyl)amino)-6-(((1-isopropyl-1H-1,2,3-triazol-4-yl)(2-methylpyridin-3-yl)methyl)amino)quinoline-3-carbonitrile], the EC50 was found to be 346 nM.
`Cc1nc(C)c([C@H](Nc2cc(Cl)c3ncc(C#N)c(Nc4ccc(F)c(Cl)c4)c3c2)c2cn(C3CCN(C(C)(C)C)CC3)nn2)s1` [Example 261, (R)-6-(((1-(1-(tert-butyl)piperidin-4-yl)-1H-1,2,3-triazol-4-yl)(2,4-dimethyl-thiazol-5-yl)methyl)amino)-8-chloro-4-((3-chloro-4-fluorophenyl)amino)-quinoline-3-carbonitrile]: the EC50 was determined as 344 nM.
For the compound `Cc1ocnc1[C@H](Nc1cc(Cl)c2ncc(C#N)c(Nc3ccc(F)c(Cl)c3)c2c1)c1cn(C2CCN(C(C)(C)C)CC2)nn1` [Example 263, (S)-6-(((1-(1-(tert-butyl)piperidin-4-yl)-1H-1,2,3-triazol-4-yl)(5-methyloxazol-4-yl)methyl)amino)-8-chloro-4-((3-chloro-4-fluorophenyl)amino)quinoline-3-carbonitrile], the EC50 amounted to 242 nM.
In the case of `Cc1ncoc1[C@H](Nc1cc(Cl)c2ncc(C#N)c(Nc3ccc(F)c(Cl)c3)c2c1)c1cn(C2CCN(C(C)(C)C)CC2)nn1` [Example 265, (R)-6-(((1-(1-(tert-butyl)piperidin-4-yl)-1H-1,2,3-triazol-4-yl)(4-methyloxazol-5-yl)methyl)amino)-8-chloro-4-((3-chloro-4-fluorophenyl)amino)quinoline-3-carbonitrile], the EC50 was 426 nM.
For `Cn1cnc([C@H](Nc2cc(Cl)c3ncc(C#N)c(Nc4ccc(F)c(Cl)c4)c3c2)c2c[nH]nn2)c1` [Example 266, (S)-8-chloro-4-((3-chloro-4-fluorophenyl)amino)-6-(((1-methyl-1H-imidazol-4-yl)(1H-1,2,3-triazol-4-yl)methyl)amino)-quinoline-3-carbonitrile], the concentration for a half-maximal effect (EC50) was 28800 nM.
Still for that read-out and setting: the figure for `Cn1ccc([C@H](Nc2cc(Cl)c3ncc(C#N)c(Nc4ccc(F)c(Cl)c4)c3c2)c2cn(C3CCN(C(C)(C)C)CC3)nn2)n1` [Example 268, (R)-6-(((1-(1-(tert-butyl)piperidin-4-yl)-1H-1,2,3-triazol-4-yl)(1-methyl-1H-pyrazol-3-yl)methyl)amino)-8-chloro-4-((3-chloro-4-fluorophenyl)-amino)quinoline-3-carbonitrile] is 234 nM; for `Cc1ncccc1[C@H](Nc1cc(Cl)c2ncc(C#N)c(Nc3ccc(F)c(Cl)c3)c2c1)c1c[nH]nn1` [Example 272, (S)-8-chloro-4-((3-chloro-4-fluorophenyl)amino)-6-(((2-methylpyridin-3-yl)(1H-1,2,3-triazol-4-yl)methyl)amino)quinoline-3-carbonitrile] it is 297 nM.
In the case of `Cc1ncccc1[C@H](Nc1cc(Cl)c2ncc(C#N)c(Nc3ccc(F)c(Cl)c3)c2c1)c1cn(COC(=O)C(C)(C)C)nn1` [Example 274, (S)-(4-(((8-chloro-4-((3-chloro-4-fluorophenyl)amino)-3-cyanoquinolin-6-yl)amino)(2-methylpyridin-3-yl)methyl)-1H-1,2,3-triazol-1-yl)methyl pivalate], the EC50 was 370 nM.
Consider `Cc1ccc([C@H](Nc2cc(Cl)c3ncc(C#N)c(Nc4ccc(F)c(Cl)c4)c3c2)c2cn(C(C)C)nn2)cn1` [Example 280, (S)-8-chloro-4-((3-chloro-4-fluorophenyl)amino)-6-(((1-isopropyl-1H-1,2,3-triazol-4-yl)(6-methylpyridin-3-yl)methyl)amino)quinoline-3-carbonitrile], for which the EC50 was 811 nM.
As to `Cc1ccc([C@H](Nc2cc(Cl)c3ncc(C#N)c(Nc4ccc(F)c(Cl)c4)c3c2)c2cn(C3CCN(C(C)(C)C)CC3)nn2)cn1` [Example 281, (S)-6-(((1-(1-(tert-butyl)piperidin-4-yl)-1H-1,2,3-triazol-4-yl)(6-methylpyridin-3-yl)methyl)amino)-8-chloro-4-((3-chloro-4-fluorophenyl)-amino)quinoline-3-carbonitrile], the EC50 stood at 575 nM.
Same read-out and setting: the figure for `CC(C)(C)N1CCC(n2cc([C@@H](Nc3cc(Cl)c4ncc(C#N)c(Nc5cncc(Cl)c5)c4c3)c3cccnc3)nn2)CC1` [Example 284, (S)-6-(((1-(1-(tert-butyl)piperidin-4-yl)-1H-1,2,3-triazol-4-yl)(pyridin-3-yl)methyl)amino)-8-chloro-4-((5-chloropyridin-3-yl)amino)quinoline-3-carbonitrile] is 1300 nM; for `COc1ccc([C@H](Nc2cc(Cl)c3ncc(C#N)c(Nc4ccc(F)c(Cl)c4)c3c2)c2cn(C3CCN(C(C)(C)C)CC3)nn2)cn1` [Example 290, (S)-6-(((1-(1-(tert-butyl)piperidin-4-yl)-1H-1,2,3-triazol-4-yl)(6-methoxy-pyridin-3-yl)methyl)amino)-8-chloro-4-((3-chloro-4-fluorophenyl)amino)-quinoline-3-carbonitrile] it is 185 nM.
As to `CC(C)(C)N1CCC(n2cc([C@@H](Nc3cc(Cl)c4ncc(C#N)c(Nc5ccc(F)c(Cl)c5)c4c3)c3cnc(F)c(F)c3)nn2)CC1` [Example 292, (S)-6-(((1-(1-(tert-butyl)piperidin-4-yl)-1H-1,2,3-triazol-4-yl)(5,6-difluoropyridin-3-yl)methyl)amino)-8-chloro-4-((3-chloro-4-fluorophenyl)amino)quinoline-3-carbonitrile], the half-maximal effective concentration (EC50) was determined as 327 nM.
On to `CC(C)n1cc([C@@H](Nc2cc(Cl)c3ncc(C#N)c(Nc4ccc(F)c(Cl)c4)c3c2)c2csc(N3CCOCC3)n2)nn1` [Example 301, (S)-8-chloro-4-((3-chloro-4-fluoro-phenyl)amino)-6-(((1-isopropyl-1H-1,2,3-triazol-4-yl)(2-morpholinothiazol-4-yl)methyl)amino)quinoline-3-carbonitrile], for which the half-maximal effective concentration (EC50) was found to be 414 nM.
Consider `CC(C)n1cc([C@@H](Nc2cc(Cl)c3ncc(C#N)c(Nc4ccc(F)c(Cl)c4)c3c2)c2cncs2)nn1` [Example 303, (R)-8-chloro-4-((3-chloro-4-fluorophenyl)amino)-6-(((1-isopropyl-1H-1,2,3-triazol-4-yl)(thiazol-5-yl)methyl)amino)quinoline-3-carbonitrile], for which the concentration for a half-maximal effect (EC50) stood at 868 nM.
As for `CC(C)n1cc([C@@H](Nc2cc(Cl)c3ncc(C#N)c(Nc4ccc(F)c(Cl)c4)c3c2)c2cocn2)nn1` [Example 312, (S)-8-chloro-4-((3-chloro-4-fluorophenyl)amino)-6-(((1-isopropyl-1H-1,2,3-triazol-4-yl)(oxazol-4-yl)methyl)amino)quinoline-3-carbonitrile], the half-maximal effective concentration (EC50) amounted to 1240 nM.
On the same count and under the same terms, the figure for `N#Cc1cnc2c(Cl)cc(N[C@@H](c3cccnc3)c3cn(C4CCN(C5COC5)CC4)nn3)cc2c1Nc1ccc(F)c(Cl)c1` [Example 314, (S)-8-chloro-4-((3-chloro-4-fluorophenyl)amino)-6-(((1-(1-(oxetan-3-yl)piperidin-4-yl)-1H-1,2,3-triazol-4-yl)(pyridin-3-yl)methyl)amino)quinoline-3-carbonitrile] is 302 nM; for `N#Cc1csc([C@H](Nc2cc(Cl)c3ncc(C#N)c(Nc4ccc(F)c(Cl)c4)c3c2)c2cn(C3COC3)nn2)c1` [Example 339, (R)-8-chloro-4-((3-chloro-4-fluorophenyl)amino)-6-(((4-cyanothiophen-2-yl)(1-(oxetan-3-yl)-1H-1,2,3-triazol-4-yl)methyl)amino)-quinoline-3-carbonitrile] it is 1010 nM.
As for `CC(C)(C)N1CCC(n2cc([C@@H](Nc3cc(Cl)c4ncc(C#N)c(Nc5ccc(F)c(Cl)c5)c4c3)c3cocn3)nn2)CC1` [Example 348, (S)-6-(((1-(1-(tert-butyl)piperidin-4-yl)-1H-1,2,3-triazol-4-yl)(oxazol-4-yl)methyl)amino)-8-chloro-4-((3-chloro-4-fluorophenyl)amino)-quinoline-3-carbonitrile], the 50% effective concentration (EC50) was found to be 444 nM.
Take `N#Cc1cnc2c(Cl)cc(N[C@@H](c3cscn3)c3cn(C4CCNCC4)nn3)cc2c1Nc1ccc(F)c(Cl)c1` [Example 354, (S)-8-chloro-4-((3-chloro-4-fluorophenyl)amino)-6-(((1-(piperidin-4-yl)-1H-1,2,3-triazol-4-yl)(thiazol-4-yl)methyl)amino)-quinoline-3-carbonitrile]: the EC50 was determined as 983 nM.
With `CC(C)(C)n1cc([C@@H](Nc2cc(Cl)c3ncc(C#N)c(Nc4ccc(F)c(Cl)c4)c3c2)c2cscn2)nn1` [Example 361, (S)-6-(((1-(tert-butyl)-1H-1,2,3-triazol-4-yl)(thiazol-4-yl)methyl)-amino)-8-chloro-4-((3-chloro-4-fluorophenyl)amino)quinoline-3-carbonitrile], the half-maximal effective concentration (EC50) is 746 nM.

Still in this test, the particulars now being: read-out: EC50 TNF; LPS-stimulated human monocytes, TNFα.
As for `Cc1ncccc1[C@H](Nc1cc(Cl)c2ncc(C#N)c(N[C@H](C)c3ccccc3)c2c1)c1cn(C2CCN(C(C)(C)C)CC2)nn1` [Example 231], the EC50 is 230 nM.
Take `Cc1cncc([C@H](Nc2cc(Cl)c3ncc(C#N)c(Nc4ccc(F)c(Cl)c4)c3c2)c2c[nH]nn2)c1` [Example 249, (S)-8-chloro-4--((3-chloro-4-fluorophenyl)amino)-6-(((5-methylpyridin-3-yl)(1H-1,2,3-triazol-4-yl)methyl)amino)quinoline-3-carbonitrile]: the EC50 amounted to 332 nM.
Turning to `Cc1cc(Cl)ncc1[C@H](Nc1cc(Cl)c2ncc(C#N)c(Nc3ccc(F)c(Cl)c3)c2c1)c1cn(C2CCN(C(C)(C)C)CC2)nn1` [Example 289], the EC50 stood at 837 nM.
Consider `CC(C)Oc1ncccc1[C@H](Nc1cc(Cl)c2ncc(C#N)c(Nc3ccc(F)c(Cl)c3)c2c1)c1cn(C2CCN(C(C)(C)C)CC2)nn1` [Example 291, (S)-6-(((1-(1-(tert-butyl)piperidin-4-yl)-1H-1,2,3-triazol-4-yl)(2-isopro-poxypyridin-3-yl)methyl)amino)-8-chloro-4-((3-chloro-4-fluorophenyl)-amino)quinoline-3-carbonitrile], for which the EC50 came to 478 nM.
